# Assay results published in patent US20220160842A1, “METHOD OF TREATING INFECTIVE ENDOCARDITIS” (priority 2019, published 2022).
# Structures can show the parent of a compound that is named as a salt.
# Tests used:
# Assay in all cases: MIC by broth microdilution
# [1] = test system: S. warneri; assay type: cell-based, Staphylococcus warneri
# Procedure: (§1) Minimal inhibitory concentrations (MICs) of exebacase against staphylococci were determined by broth microdilution (BMD) using a nonstandard antimicrobial susceptibility testing (AST) medium comprised of cation-adjusted Mueller Hinton broth (caMHB) supplemented with horse serum (Sigma Aldrich) and dithiothreitol (DTT; Sigma Aldrich) to final concentrations of 25% and 0.5 mM, respectively. This medium, referred to as caMHB-HSD, is approved for use in exebacase AST by the Clinical and Laboratory Standards Institute (CLSI) (CLSI. 2017, Jan. 16-17. AST Subcommittee Working Group Meetings and Plenary. AST Meeting Files & Resources, clsi.org/education/microbiology/ast/ast-meeting-files-resources/. Additional supplementation with 2.5% lysed red blood cells (Remel™, ThermoFisher) was included for analyses of streptococcal isolates, as recommended by CLSI. See CLSI, 2015. Methods for Dilution Antimicrobial Susceptibility Tests for Bacteria That Grow Aerobically, 10th Edition. Clinical and Laboratory Standards Institute, Wayne, Pa.
# (§2) Daptomycin (Sigma Aldrich) and vancomycin hydrochloride (Sigma Aldrich) were tested following the reference BMD method for each. See CLSI. 2015. Methods for Dilution Antimicrobial Susceptibility Tests for Bacteria That Grow Aerobically, 10th Edition. Clinical and Laboratory Standards Institute, Wayne, Pa.
# [2] = test system: S. sanguinis; assay type: cell-based, Streptococcus sanguinis
# Procedure: as §1, §2
# [3] = test system: S. pyogenes; assay type: cell-based, Streptococcus pyogenes
# Procedure: as §1, §2
# [4] = test system: S. gallolyticus; assay type: cell-based, Streptococcus gallolyticus
# Procedure: as §1, §2
# [5] = test system: all staphylococci tested; assay type: cell-based
# Procedure: as §2
# [6] = test system: S. gordonii; assay type: cell-based, Streptococcus gordonii
# Procedure: as §1, §2
# [7] = test system: S. lugdunensis; assay type: cell-based, Staphylococcus lugdunensis
# Procedure: as §1, §2
# [8] = test system: S. anginosus; assay type: cell-based, Streptococcus anginosus
# Procedure: as §1, §2
# [9] = test system: S. pneumoniae; assay type: cell-based, Streptococcus pneumoniae
# Procedure: as §1, §2
# [10] = test system: E. faecalis; assay type: cell-based, Enterococcus faecalis
# Procedure: as §1, §2
# [11] = test system: S. dysgalactiae; assay type: cell-based, Streptococcus dysgalactiae
# Procedure: as §1, §2
# [12] = test system: S. mutans; assay type: cell-based, Streptococcus mutans
# Procedure: as §1, §2
# [13] = test system: S. haemolyticus; assay type: cell-based, Staphylococcus haemolyticus
# Procedure: as §1, §2
# [14] = test system: S. capitis; assay type: cell-based, Staphylococcus capitis
# Procedure: as §1, §2
# [15] = test system: S. mitis; assay type: cell-based, Streptococcus mitis
# Procedure: as §1, §2
# [16] = test system: S. oralis; assay type: cell-based, Streptococcus oralis
# Procedure: as §1, §2
# [17] = test system: S. aureus (MSSA); assay type: cell-based, Staphylococcus aureus
# Procedure: as §1, §2
# [18] = test system: S. aureus (MRSA); assay type: cell-based, Staphylococcus aureus
# Procedure: as §1, §2
# [19] = test system: S. salivarius; assay type: cell-based, Streptococcus salivarius
# Procedure: as §1, §2
# [20] = test system: S. agalactiae; assay type: cell-based, Streptococcus agalactiae
# Procedure: as §1, §2
smiles,measurement,setting,value
"CN[C@H](CC(C)C)C(=O)N[C@H]1C(=O)N[C@@H](CC(N)=O)C(=O)N[C@H]2C(=O)N[C@H]3C(=O)N[C@H](C(=O)N[C@H](C(=O)O)c4cc(O)cc(O)c4-c4cc3ccc4O)[C@H](O)c3ccc(c(Cl)c3)Oc3cc2cc(c3O[C@@H]2O[C@H](CO)[C@@H](O)[C@H](O)[C@H]2O[C@H]2C[C@](C)(N)[C@H](O)[C@H](C)O2)Oc2ccc(cc2Cl)[C@H]1O [VAN, vancomycin hydrochloride]",MIC Range,"[1]; S. warneri, N=23",0.25 to 2 µg/mL
same,MIC50,[1]; Staphylococcus warneri,1 µg/mL
same,MIC90,[1]; Staphylococcus warneri,2 µg/mL
same,MIC Range,"[2]; S. sanguinis (viridans), N=15",0.5 to 2 µg/mL
same,MIC50,[2]; Streptococcus sanguinis,0.5 µg/mL
same,MIC90,[2]; Streptococcus sanguinis,0.5 µg/mL
same,MIC Range,"[3]; S. pyogenes (group A), N=100",0.25 to 0.5 µg/mL
same,MIC50,[3]; Streptococcus pyogenes,0.5 µg/mL
same,MIC90,[3]; Streptococcus pyogenes,0.5 µg/mL
same,MIC Range,"[4]; S. gallolyticus (bovis), N=19",0.25 to 0.5 µg/mL
same,MIC50,[4]; Streptococcus gallolyticus,0.25 µg/mL
same,MIC90,[4]; Streptococcus gallolyticus,0.5 µg/mL
same,MIC Range,[5],0.5 to 4 µg/mL
same,MIC Range,"[6]; S. gordonii (viridans), N=11",0.5 to 1 µg/mL
same,MIC50,[6]; Streptococcus gordonii,0.5 µg/mL
same,MIC90,[6]; Streptococcus gordonii,1 µg/mL
same,MIC Range,"[7]; S. lugdunensis, N=49",0.5 to 2 µg/mL
same,MIC50,[7]; Staphylococcus lugdunensis,1 µg/mL
same,MIC90,[7]; Staphylococcus lugdunensis,1 µg/mL
same,MIC Range,"[8]; S. anginosus (viridans), N=10",0.5 to 1 µg/mL
same,MIC50,[8]; Streptococcus anginosus,0.5 µg/mL
same,MIC90,[8]; Streptococcus anginosus,1 µg/mL
same,MIC Range,"[9]; S. pneumoniae, N=59",0.25 to 0.5 µg/mL
same,MIC50,[9]; Streptococcus pneumoniae,0.25 µg/mL
same,MIC90,[9]; Streptococcus pneumoniae,0.5 µg/mL
same,MIC Range,"[10]; E. faecalis (formerly group D), N=18",0.5 to 2 µg/mL
same,MIC50,[10]; Enterococcus faecalis,1 µg/mL
same,MIC90,[10]; Enterococcus faecalis,2 µg/mL
same,MIC Range,"[11]; S. dysgalactiae (group G), N=22",0.25 to 1 µg/mL
same,MIC50,[11]; Streptococcus dysgalactiae,0.5 µg/mL
same,MIC90,[11]; Streptococcus dysgalactiae,0.5 µg/mL
same,MIC Range,"[12]; S. mutans (viridans), N=22",0.25 to 1 µg/mL
same,MIC50,[12]; Streptococcus mutans,1 µg/mL
same,MIC90,[12]; Streptococcus mutans,1 µg/mL
same,MIC Range,"[13]; S. haemolyticus, N=36",0.5 to 4 µg/mL
same,MIC50,[13]; Staphylococcus haemolyticus,1 µg/mL
same,MIC90,[13]; Staphylococcus haemolyticus,2 µg/mL
same,MIC Range,"[14]; S. capitis, N=13",0.5 to 2 µg/mL
same,MIC50,[14]; Staphylococcus capitis,1 µg/mL
same,MIC90,[14]; Staphylococcus capitis,1 µg/mL
same,MIC Range,"[15]; S. mitis (viridans), N=18",0.25 to 0.5 µg/mL
same,MIC50,[15]; Streptococcus mitis,0.5 µg/mL
same,MIC90,[15]; Streptococcus mitis,0.5 µg/mL
same,MIC Range,"[16]; S. oralis (viridans), N=15",0.5 to 1 µg/mL
same,MIC50,[16]; Streptococcus oralis,0.5 µg/mL
same,MIC90,[16]; Streptococcus oralis,1 µg/mL
same,MIC Range,"[17]; S. aureus (MSSA), N=73",0.5 to 1 µg/mL
same,MIC50,"[17]; Staphylococcus aureus, MSSA",1 µg/mL
same,MIC90,"[17]; Staphylococcus aureus, MSSA",1 µg/mL
same,MIC Range,"[18]; S. aureus (MRSA), N=74",1 to 2 µg/mL
same,MIC50,"[18]; Staphylococcus aureus, MRSA",1 µg/mL
same,MIC90,"[18]; Staphylococcus aureus, MRSA",1 µg/mL
same,MIC Range,"[19]; S. salivarius (viridans), N=12",0.25 to 0.5 µg/mL
same,MIC50,[19]; Streptococcus salivarius,0.5 µg/mL
same,MIC90,[19]; Streptococcus salivarius,0.5 µg/mL
same,MIC Range,"[20]; S. agalactiae (group B), N=97",0.25 to 0.5 µg/mL
same,MIC50,[20]; Streptococcus agalactiae,0.5 µg/mL
same,MIC90,[20]; Streptococcus agalactiae,0.5 µg/mL
